In patent publication US6627611B2, “C-glycosides and preparation of thereof as antidiabetic agents” (Kotobuki Pharmaceutical Co Ltd, priority 2000, dated 2003):

tested on: male SD rats; assay: Measurement of urinary glucose excretion in rats; format: in vivo, rat; conditions: 10 mg/kg i.p. administered twice at an 8 hr interval, urine collected for 24 hr after first administration
Experimental: The pharmacological test of urinary glucose excretion in rat is described that follow.
Measurement of Urinary Glucose Excretion in Rats
20 mg of test compounds were dissolved in 10 mL saline containing 20% dimethylsulufoxide.
Test compound (10 mg/5 mL/kg, i.p.) was administered twice an 8 hr interval to male SD rats (6 weeks old, 3 animals/group). An equal volume of vehicle was given to the control group. Urine was collected for 24 hr after first administration in metabolic cages.
The urine was centrifuged and urine volume was measured. Glucose concentration (mg/dl) was assayed using Glucose CII test Wako (Wako Pure Chemicals, Japan). The amounts of glucose excretion during 24 hr was calculated from the following equation.
Glucose secretion (mg/24 hr)=(A×B)/100
(A; the urine volume, B; the glucose concentration)

Compound	Urinary glucose excretion (mg/24 hr)
COc1cc(O)c(C(=O)/C=C/c2ccc3occc3c2)c(CC2OC(CO)C(O)C(O)C2O)c1 [Compound 1, 3-(Benzo[b]furan-5-yl)-1-(2′-β-D-glucopyranosylmethyl-6′-hydroxy-4′-methoxy)acrylophenone]	4.1
COc1cc(O)c(C(=O)/C=C/c2ccc3occc3c2)cc1[C@@H]1O[C@H](CO)[C@@H](O)[C@H](O)[C@H]1O [Compound 3, 3-(Benzo[b]furan-5-yl)-3′-β-D-glucopyranosyl-6′-hydroxy-4′-methoxyacrylophenone]	241
COC(=O)OC[C@H]1O[C@@H](c2cc(C(=O)/C=C/c3ccc4occc4c3)c(O)cc2OC)[C@H](O)[C@@H](O)[C@@H]1O [Compound 4, 3-(Benzo[b]furan-5-yl)-3′-(6-O-methoxycarbonyl-β-D-glucopyranosyl)-6′-hydroxy-4′-methoxy-acrylophenone]	289
COC(=O)OCC1OC(c2cc(C(=O)CCc3ccc4occc4c3)c(O)cc2OC)C(O)C(O)C1O [Compound 5, 3-(Benzo[b]furan-5-yl)-3′-(6-O-methoxycarbonyl-β-D-glucopyranosyl)-6′-hydroxy-4′-methoxy-propiopenone]	228
CCOc1cc(OCC)c(C2OC(CO)C(O)C(O)C2O)cc1C(=O)/C=C/c1ccc2occc2c1 (stereo not shown) [Compound 6]	8.9
COc1cc(O)c(C(=O)CCc2ccc3occc3c2)cc1C1OC(CO)C(O)C(O)C1O (stereo not shown) [Compound 22]	124

tested on: not given; assay: not given; conditions: not given

melting point [°C]	Compound
118 to 119	COc1cc(C)c(C(=O)CCc2ccc3occc3c2)cc1C1OC(CO)C(O)C(O)C1O (stereo not shown) [Compound 27]
194 to 196	COc1cc(O)c(C(=O)CCc2ccc3c(c2)CCC3)cc1C1OC(CO)C(O)C(O)C1O (stereo not shown) [Compound 28]
131 to 132	COc1cc(O)c(C(=O)CCc2ccc3occc3c2)c(OC)c1C1OC(CO)C(O)C(O)C1O (stereo not shown) [Compound 29]
66 to 71	COc1cc(O)c(C(=O)CCc2ccc3[nH]ccc3c2)cc1C1OC(CO)C(O)C(O)C1O (stereo not shown) [Compound 30]
216 to 217	COc1cc(O)c(C(=O)CCc2cc3ccccc3o2)cc1C1OC(CO)C(O)C(O)C1O (stereo not shown) [Compound 31]
71 to 73	COc1cc(O)c(C(=O)/C=C/c2ccc3occc3c2)cc1C1OC(COC(=O)CCC(=O)O)C(O)C(O)C1O (stereo not shown) [Compound 42]
115 to 117	COc1cc(O)c(C(=O)/C=C/c2ccc3occc3c2)cc1C1OC(C(=O)[O-])C(O)C(O)C1O.[Na+] [Compound 43, 3-(Benzo[b]furan-5-yl)-3′-(6-carboxysodium salt-β-D-glucopyranosyl)4′-methoxy-6′-hydroxy-acrylophenone]
177 to 179	COc1cc(O)c(C(=O)/C=C/c2ccc3occc3c2)cc1C1OC(COS(=O)(=O)O)C(O)C(O)C1O [Compound 44, 3-(Benzo[b]furan-5-yl)-3′-(6-sulfonic acid-β-D-glucopyranosyl)-4′-methoxy-6′-hydroxyacrylophenone]
113 to 114	COc1cc(O)c(C(=O)CCc2ccc3occc3c2)cc1C1OC(COC(=O)CCC(=O)O)C(O)C(O)C1O (stereo not shown) [Compound 47]
262	COc1cc(O)c(C(=O)CCc2ccc3occc3c2)cc1C1OC(COC(=O)CCC(=O)[O-])C(O)C(O)C1O.[Na+] (stereo not shown) [Compound 48]
103 to 105	Cc1cc(O)c(C(=O)/C=C/c2ccc3occc3c2)c(CC2OC(CO)C(O)C(O)C2O)c1 [Compound 51, 3-(Benzo[b]furan-5-yl)-1-[6-hydroxy-4-methyl-2-{(β-D-glucopyranos-1-yl)methyl}]acrylophenone]
85 to 87	Cc1cc(O)c(C(=O)CCc2ccc3occc3c2)c(CC2OC(CO)C(O)C(O)C2O)c1 [Compound 52, 3-(Benzo[b]furan-5-yl)-1-[6-hydroxy-4-methyl-2-{(β-D-glucopyranos-1-yl)methyl}]propiophenone]
58 to 60	COC(=O)OCC1OC(Cc2cc(C)cc(O)c2C(=O)CCc2ccc3occc3c2)C(O)C(O)C1O [Compound 53, 3-Benzo [b]furan-5-yl-1-(6-hydroxy-4-methyl-2-{[6-methoxycarbonyl-β-D-glucopyranos-1-yl]methyl})propiophenone]
227 to 228	O=C(CCc1ccc(O)cc1)c1c(O)cc(O)cc1CC1OC(CO)C(O)C(O)C1O [Compound 54, 1-[2,4-Dihydroxy-6-{(β-D-glicopyranosyl)methyl}phenyl]-3-(4-hydroxyphenyl)propan-1-one]
80 to 83	COc1cc(C)cc(CC2OC(CO)C(O)C(O)C2O)c1C(=O)/C=C/c1ccc2occc2c1 (stereo not shown) [Compound 55]
118 to 120	COc1cc(C)cc(CC2OC(CO)C(O)C(O)C2O)c1C(=O)/C=C/c1ccc2occc2c1 (stereo not shown) [Compound 57]
199 to 201	COC(=O)OCC1OC(Cc2cc(O)cc(O)c2C(=O)CCc2ccc(O)cc2)C(O)C(O)C1O (stereo not shown) [Compound 58]

Second part, the molecule before the results:

Compound	melting point [°C]
COc1cc(O)c(C(=O)/C=C/c2ccc3occc3c2)c(CC2OC(CO)C(O)C(O)C2O)c1 [Compound 1, 3-(Benzo[b]furan-5-yl)-1-(2′-β-D-glucopyranosylmethyl-6′-hydroxy-4′-methoxy)acrylophenone]	135 to 136
COc1cc(OC)c(C2OC(CO)C(O)C(O)C2O)cc1C(=O)/C=C/c1ccc2occc2c1 (stereo not shown) [Compound 2]	226 to 228
COc1cc(O)c(C(=O)/C=C/c2ccc3occc3c2)cc1[C@@H]1O[C@H](CO)[C@@H](O)[C@H](O)[C@H]1O [Compound 3, 3-(Benzo[b]furan-5-yl)-3′-β-D-glucopyranosyl-6′-hydroxy-4′-methoxyacrylophenone]	> 250
COC(=O)OC[C@H]1O[C@@H](c2cc(C(=O)/C=C/c3ccc4occc4c3)c(O)cc2OC)[C@H](O)[C@@H](O)[C@@H]1O [Compound 4, 3-(Benzo[b]furan-5-yl)-3′-(6-O-methoxycarbonyl-β-D-glucopyranosyl)-6′-hydroxy-4′-methoxy-acrylophenone]	195 to 196
COC(=O)OCC1OC(c2cc(C(=O)CCc3ccc4occc4c3)c(O)cc2OC)C(O)C(O)C1O [Compound 5, 3-(Benzo[b]furan-5-yl)-3′-(6-O-methoxycarbonyl-β-D-glucopyranosyl)-6′-hydroxy-4′-methoxy-propiopenone]	120 to 121
CCOc1cc(OCC)c(C2OC(CO)C(O)C(O)C2O)cc1C(=O)/C=C/c1ccc2occc2c1 (stereo not shown) [Compound 6]	120 to 121
CCOc1cc(O)c(C(=O)/C=C/c2ccc3occc3c2)cc1C1OC(CO)C(O)C(O)C1O (stereo not shown) [Compound 7]	189 to 190
Cc1cc(O)c(C(=O)/C=C/c2ccc3occc3c2)cc1C1OC(CO)C(O)C(O)C1O (stereo not shown) [Compound 8]	228 to 229
COc1cc(C)c(C(=O)/C=C/c2ccc3occc3c2)cc1C1OC(CO)C(O)C(O)C1O (stereo not shown) [Compound 9]	137 to 138
COc1cc(O)c(C(=O)/C=C/c2ccc(C)cc2)cc1C1OC(CO)C(O)C(O)C1O (stereo not shown) [Compound 10]	181 to 183
COc1cc(O)c(C(=O)/C=C/c2ccsc2)cc1C1OC(CO)C(O)C(O)C1O (stereo not shown) [Compound 11]	239 to 242
COc1cc(O)c(C(=O)/C=C/c2ccncc2)cc1C1OC(CO)C(O)C(O)C1O (stereo not shown) [Compound 12]	183 to 185
COc1cc(O)c(C(=O)/C=C/c2ccc3ccccc3c2)cc1C1OC(CO)C(O)C(O)C1O (stereo not shown) [Compound 13]	236 to 239
COc1cc(O)c(C(=O)/C=C/c2ccnc3ccccc23)cc1C1OC(CO)C(O)C(O)C1O (stereo not shown) [Compound 14]	226 to 228
COc1cc(O)c(C(=O)/C=C/c2ccc3c(c2)CCC3)cc1C1OC(CO)C(O)C(O)C1O (stereo not shown) [Compound 15]	245 to 248
COc1cc(O)c(C(=O)/C=C/c2ccc3occc3c2)c(OC)c1C1OC(CO)C(O)C(O)C1O (stereo not shown) [Compound 16]	198 to 199
COc1cc(O)c(C(=O)/C=C/c2ccc3[nH]ccc3c2)cc1C1OC(CO)C(O)C(O)C1O (stereo not shown) [Compound 17]	194 to 196
COc1cc(O)c(C(=O)/C=C/c2ccc3sccc3c2)cc1C1OC(CO)C(O)C(O)C1O (stereo not shown) [Compound 18]	217 to 220
COc1cc(O)c(C(=O)/C=C/c2ccc3c(c2)CCO3)cc1C1OC(CO)C(O)C(O)C1O (stereo not shown) [Compound 19]	276 to 279
COc1cc(O)c(C(=O)/C=C/c2cc3ccccc3o2)cc1C1OC(CO)C(O)C(O)C1O (stereo not shown) [Compound 20]	256 to 257
COc1cc(O)c(C(=O)CCc2ccc3occc3c2)c(C[C@@H]2O[C@H](CO)[C@@H](O)[C@H](O)[C@H]2O)c1 [Compound 21, 3-(Benzo[b]furan-5-yl)-2′-β-D-glucopyranosylmethyl-6′-hydroxy-4′-methoxypropiophenone]	103 to 105
COc1cc(O)c(C(=O)CCc2ccc3occc3c2)cc1C1OC(CO)C(O)C(O)C1O (stereo not shown) [Compound 22]	226 to 228
COc1cc(OC)c(C2OC(CO)C(O)C(O)C2O)cc1C(=O)CCc1ccc2occc2c1 (stereo not shown) [Compound 23]	112 to 113
CCOc1cc(OCC)c(C2OC(CO)C(O)C(O)C2O)cc1C(=O)CCc1ccc2occc2c1 (stereo not shown) [Compound 24]	89 to 90
CCOc1cc(O)c(C(=O)CCc2ccc3occc3c2)cc1C1OC(CO)C(O)C(O)C1O (stereo not shown) [Compound 25]	175 to 176
Cc1cc(O)c(C(=O)CCc2ccc3occc3c2)cc1C1OC(CO)C(O)C(O)C1O (stereo not shown) [Compound 26]	191 to 192
